Tests used:
M. globosa [1] = test: M. globosa growth in liquid MLNB media (Example 3); type: cell-based
Description: (§1) At appropriate time intervals (0 h, 24 h, 48 h, 72 h, and 168 h) 1 mL aliquots of the cell suspension were withdrawn and plated on MLNA. All the experiments were performed in duplicate.

M. globosa [2] = test: M. globosa growth on solid media with composition and individual component supplementation (Example 3); details: individual component supplementation, after 5 days
M. restricta MYA-4611 [3] = test: M. restricta growth in liquid MLNB media (Example 3); type: cell-based
Description: as §1

M. restricta MYA-4611 [4] = test: M. restricta growth on solid media with composition and individual component supplementation (Example 3); details: individual component supplementation, after 5 days

Molecule: N[C@@H](CC(=O)O)C(=O)O [L-Asp, L-aspartic acid]
- M. globosa growth in liquid MLNB media (M. globosa [1]; 0.46% L-Asp, t = 24 h): 14 cfu/mL
- M. globosa growth in liquid MLNB media (M. globosa [1]; 0.46% L-Asp, t = 48 h): 10 cfu/mL
- M. globosa growth in liquid MLNB media (M. globosa [1]; 0.46% L-Asp, t = 72 h): 6 cfu/mL
- M. globosa growth in liquid MLNB media (M. globosa [1]; 0.46% L-Asp, t = 168 h): 1 cfu/mL
- growth on solid media (M. globosa [2]; 0.46% L-Asp): support some growth
- M. restricta growth in liquid MLNB media (M. restricta MYA-4611 [3]; 0.46% L-Asp, t = 24 h): 15 cfu/mL
- M. restricta growth in liquid MLNB media (M. restricta MYA-4611 [3]; 0.46% L-Asp, t = 48 h): 11 cfu/mL
- M. restricta growth in liquid MLNB media (M. restricta MYA-4611 [3]; 0.46% L-Asp, t = 72 h): 10 cfu/mL
- M. restricta growth in liquid MLNB media (M. restricta MYA-4611 [3]; 0.46% L-Asp, t = 168 h): 14 cfu/mL
- growth on solid media (M. restricta MYA-4611 [4]; 0.46% L-Asp): support some growth

Molecule: NC(=O)c1cccnc1 [Niacinamide, niacinamide, reference compound]
- M. globosa growth in liquid MLNB media (M. globosa [1]; 0.5% Niacinamide, t = 24 h): 2 cfu/mL
- M. globosa growth in liquid MLNB media (M. globosa [1]; 0.5% Niacinamide, t = 48 h): 0 cfu/mL
- M. globosa growth in liquid MLNB media (M. globosa [1]; 0.5% Niacinamide, t = 72 h): 0 cfu/mL
- M. globosa growth in liquid MLNB media (M. globosa [1]; 0.5% Niacinamide, t = 168 h): 0 cfu/mL
- growth on solid media (M. globosa [2]; 0.5% niacinamide): support some growth
- M. restricta growth in liquid MLNB media (M. restricta MYA-4611 [3]; 0.5% Niacinamide, t = 24 h): 20 cfu/mL
- M. restricta growth in liquid MLNB media (M. restricta MYA-4611 [3]; 0.5% Niacinamide, t = 48 h): 5 cfu/mL
- M. restricta growth in liquid MLNB media (M. restricta MYA-4611 [3]; 0.5% Niacinamide, t = 72 h): 0 cfu/mL
- M. restricta growth in liquid MLNB media (M. restricta MYA-4611 [3]; 0.5% Niacinamide, t = 168 h): 0 cfu/mL
- growth on solid media (M. restricta MYA-4611 [4]; 0.5% niacinamide): support some growth

Molecule: conjugated linoleic acid [CLA]
- M. globosa growth in liquid MLNB media (M. globosa [1]; 1.5% CLA, t = 24 h): 2 cfu/mL
- M. globosa growth in liquid MLNB media (M. globosa [1]; 1.5% CLA, t = 48 h): 0 cfu/mL
- M. globosa growth in liquid MLNB media (M. globosa [1]; 1.5% CLA, t = 72 h): 0 cfu/mL
- M. globosa growth in liquid MLNB media (M. globosa [1]; 1.5% CLA, t = 168 h): 0 cfu/mL
- growth on solid media (M. globosa [2]; 1.5% CLA): support some growth
- M. restricta growth in liquid MLNB media (M. restricta MYA-4611 [3]; 1.5% CLA, t = 24 h): 7 cfu/mL
- M. restricta growth in liquid MLNB media (M. restricta MYA-4611 [3]; 1.5% CLA, t = 48 h): 0 cfu/mL
- M. restricta growth in liquid MLNB media (M. restricta MYA-4611 [3]; 1.5% CLA, t = 72 h): 0 cfu/mL
- M. restricta growth in liquid MLNB media (M. restricta MYA-4611 [3]; 1.5% CLA, t = 168 h): 0 cfu/mL
- growth on solid media (M. restricta MYA-4611 [4]; 1.5% CLA): support some growth

Source: patent US10350187B2, “Methods and composition for suppression of pathogenic bacterial growth, fungal growth, or microbial growth in or on skin” (priority 2017, dated 2019)
